biological target: Human CD38 (Homo sapiens (Human), UniProt P28907); assay: CD38 enzyme assay; format: biochemical; conditions: 2 nM CD38, NAD+ substrate, absorbance at 405 nm
In short: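 IC50 values come from fitting % inhibition against compound concentration with a 4-parameter logistic, or a 3-parameter fit with top/bottom fixed at 100/0 or Hill at 1. Inhibition is scaled between DMSO wells and positive-control wells treated with a quinolinone CD38 inhibitor.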

Human CD38, sequence (P28907 whole entry): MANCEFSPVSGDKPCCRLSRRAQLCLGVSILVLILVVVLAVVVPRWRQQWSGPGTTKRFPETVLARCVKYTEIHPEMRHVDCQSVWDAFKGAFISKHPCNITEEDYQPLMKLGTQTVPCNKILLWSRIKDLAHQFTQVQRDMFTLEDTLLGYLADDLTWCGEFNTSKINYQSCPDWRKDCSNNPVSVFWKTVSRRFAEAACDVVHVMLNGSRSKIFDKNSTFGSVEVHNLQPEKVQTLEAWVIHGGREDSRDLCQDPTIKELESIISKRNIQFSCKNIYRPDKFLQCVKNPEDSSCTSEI

Structure (SMILES) | IC50 [nM]
O=C(N[C@H]1CC[C@@H](NCC(F)F)CC1)c1nc(-n2ccnc2)nc2cc[nH]c12 [Example 106, N-((1s,4s)-4-((2,2-difluoroethyl)amino)cyclohexyl)-2-(1H-imidazol-1-yl)-5H-pyrrolo[3,2-d]pyrimidine-4-carboxamide] | 100 to 1000
O=C(NC1CCC(F)(F)CC1)c1nc(-n2ccnc2)cc2cn[nH]c12 [Example 107, N-(4,4-difluorocyclohexyl)-5-(1H-imidazol-1-yl)-1H-pyrazolo[3,4-c]pyridine-7-carboxamide] | < 10
COCCO[C@H]1CC[C@H](NC(=O)c2nc(-n3ccnc3)nc3cc(C)[nH]c23)CC1 [Example 108, 2-(1H-imidazol-1-yl)-N-((1r,4r)-4-(2-methoxyethoxy)cyclohexyl)-6-methyl-5H-pyrrolo[3,2-d]pyrimidine-4-carboxamide] | 10 to 100
CC(C)(O)[C@H]1CC[C@H](NC(=O)c2nc(-n3ccnc3)cc3cn[nH]c23)CC1 [Example 109, N-((1r,4r)-4-(2-hydroxypropan-2-yl)cyclohexyl)-5-(1H-imidazol-1-yl)-1H-pyrazolo[3,4-c]pyridine-7-carboxamide] | < 10
CN(CCC(F)(F)F)[C@H]1CC[C@H](NC(=O)c2nc(-n3ccnc3)nc3cc[nH]c23)CC1 [Example 110, 2-(1H-imidazol-1-yl)-N-((1r,4r)-4-(methyl(3,3,3-trifluoropropyl)amino)cyclohexyl)-5H-pyrrolo[3,2-d]pyrimidine-4-carboxamide] | 10 to 100
CN(CCC(F)(F)F)[C@H]1CC[C@@H](NC(=O)c2nc(-n3ccnc3)nc3cc[nH]c23)CC1 [Example 111, 2-(1H-imidazol-1-yl)-N-((1s,4s)-4-(methyl(3,3,3-trifluoropropyl)amino)cyclohexyl)-5H-pyrrolo[3,2-d]pyrimidine-4-carboxamide] | 100 to 1000
CN(CC(F)(F)F)[C@H]1CC[C@H](NC(=O)c2nc(-n3ccnc3)nc3cc[nH]c23)CC1 [Example 112, 2-(1H-imidazol-1-yl)-N-((1r,4r)-4-(methyl(2,2,2-trifluoroethyl)amino)cyclohexyl)-5H-pyrrolo[3,2-d]pyrimidine-4-carboxamide] | 10 to 100
CN(CC(F)(F)F)[C@H]1CC[C@@H](NC(=O)c2nc(-n3ccnc3)nc3cc[nH]c23)CC1 [Example 113, 2-(1H-imidazol-1-yl)-N-((1s,4s)-4-(methyl(2,2,2-trifluoroethyl)amino)cyclohexyl)-5H-pyrrolo[3,2-d]pyrimidine-4-carboxamide] | 10 to 100
CC(=O)NC[C@H]1CC[C@H](NC(=O)c2nc(-n3ccnc3)nc3cc[nH]c23)CC1 [Example 114, N-((1r,4r)-4-(acetamidomethyl)cyclohexyl)-2-(1H-imidazol-1-yl)-5H-pyrrolo[3,2-d]pyrimidine-4-carboxamide] | < 10
O=C(N[C@H]1CC[C@H](NCC(F)(F)F)CC1)c1nc(-n2ccnc2)cc2cn[nH]c12 [Example 115, 5-(1H-imidazol-1-yl)-N-((1r,4r)-4-((2,2,2-trifluoroethyl)amino)cyclohexyl)-1H-pyrazolo[3,4-c]pyridine-7-carboxamide] | 10 to 100
O=C(N[C@H]1CC[C@@H](NCC(F)(F)F)CC1)c1nc(-n2ccnc2)cc2cn[nH]c12 [Example 116, 5-(1H-imidazol-1-yl)-N-((1s,4s)-4-((2,2,2-trifluoroethyl)amino)cyclohexyl)-1H-pyrazolo[3,4-c]pyridine-7-carboxamide] | 10 to 100
Cc1nc2nc(-n3ccnc3)nc(C(=O)NC3CCC(F)(F)CC3)c2[nH]1 [Example 117, N-(4,4-difluorocyclohexyl)-2-(1H-imidazol-1-yl)-8-methyl-7H-purine-6-carboxamide] | 10 to 100
CC(C)(C#N)c1ccc(NC(=O)c2nc(-n3ccnc3)nc3cc[nH]c23)cc1 [Example 118, N-[4-(1-cyano-1-methyl-ethyl)phenyl]-2-imidazol-1-yl-5H-pyrrolo[3,2-d]pyrimidine-4-carboxamide] | < 10
O=C(N[C@H]1CC[C@](O)(C(F)(F)F)CC1)c1nc(-n2ccnc2)nc2cc[nH]c12 [Example 120a, N-((1s,4s)-4-hydroxy-4-(trifluoromethyl)cyclohexyl)-2-(1H-imidazol-1-yl)-5H-pyrrolo[3,2-d]pyrimidine-4-carboxamide] | < 10
O=C(N[C@H]1CC[C@@](O)(C(F)(F)F)CC1)c1nc(-n2ccnc2)nc2cc[nH]c12 [Example 120b, N-((1r,4r)-4-hydroxy-4-(trifluoromethyl)cyclohexyl)-2-(1H-imidazol-1-yl)-5H-pyrrolo[3,2-d]pyrimidine-4-carboxamide] | 10 to 100
O=C(N[C@H]1CC[C@H](C(F)(F)F)CC1)c1nc(-n2ccnc2)nc2ccsc12 [Example 121, 2-(1H-imidazol-1-yl)-N-((1r,4r)-4-(trifluoromethyl)cyclohexyl)thieno[3,2-d]pyrimidine-4-carboxamide] | < 10
O=C(N[C@H]1CC[C@@H](C(F)(F)F)CC1)c1nc(-n2ccnc2)nc2ccsc12 [Example 122, 2-(1H-imidazol-1-yl)-N-((1s,4s)-4-(trifluoromethyl)cyclohexyl)thieno[3,2-d]pyrimidine-4-carboxamide] | < 10
O=C(N[C@@H]1CCNC[C@@H]1F)c1nc(-n2ccnc2)nc2cc[nH]c12 [Example 123a, N-((3S,4R)-3-fluoropiperidin-4-yl)-2-(1H-imidazol-1-yl)-5H-pyrrolo[3,2-d]pyrimidine-4-carboxamide] | 10 to 100
O=C(N[C@@H]1CCNC[C@H]1F)c1nc(-n2ccnc2)nc2cc[nH]c12 [Example 123b, N-((3R,4R)-3-fluoropiperidin-4-yl)-2-(1H-imidazol-1-yl)-5H-pyrrolo[3,2-d]pyrimidine-4-carboxamide] | 100 to 1000
COCCO[C@H]1CCC[C@H](NC(=O)c2nc(-n3ccnc3)nc3cc[nH]c23)C1 [Example 124a, 2-(1H-imidazol-1-yl)-N-((1S,3S)-3-(2-methoxyethoxy)cyclohexyl)-5H-pyrrolo[3,2-d]pyrimidine-4-carboxamide] | 10 to 100
COCCO[C@@H]1CCC[C@H](NC(=O)c2nc(-n3ccnc3)nc3cc[nH]c23)C1 [Example 124b, 2-(1H-imidazol-1-yl)-N-((1S,3R)-3-(2-methoxyethoxy)cyclohexyl)-5H-pyrrolo[3,2-d]pyrimidine-4-carboxamide] | 10 to 100
C[C@H](O)COC1CCC(NC(=O)c2nc(-n3ccnc3)nc3cc[nH]c23)CC1 (stereo partly drawn) [Example 125b, N-((1R,4r)-4-((S)-2-hydroxypropoxy)cyclohexyl)-2-(1H-imidazol-1-yl)-5H-pyrrolo[3,2-d]pyrimidine-4-carboxamide] | 10 to 100
CC(C)[C@](C)(O)COC1CCC(NC(=O)c2nc(-n3ccnc3)nc3cc[nH]c23)CC1 (stereo partly drawn) [Example 126b, N-((1R,4r)-4-((S)-2-hydroxy-2,3-dimethylbutoxy)cyclohexyl)-2-(1H-imidazol-1-yl)-5H-pyrrolo[3,2-d]pyrimidine-4-carboxamide] | 10 to 100

Structure (SMILES) | IC50 [nM]
C[C@](O)(C(=O)NC1CCC(NC(=O)c2nc(-n3ccnc3)nc3cc[nH]c23)CC1)C(F)(F)F (stereo partly drawn) [Example 127b, 2-(1H-imidazol-1-yl)-N-((1R,4r)-4-((S)-3,3,3-trifluoro-2-hydroxy-2-methylpropanamido)cyclohexyl)-5H-pyrrolo[3,2-d]pyrimidine-4-carboxamide] | 10 to 100
CO[C@]1(C)CC[C@@H](NC(=O)c2nc(-n3ccnc3)nc3cc[nH]c23)CC1 [Example 128a, 2-(1H-imidazol-1-yl)-N-((1r,4r)-4-methoxy-4-methylcyclohexyl)-5H-pyrrolo[3,2-d]pyrimidine-4-carboxamide] | < 10
CO[C@]1(C)CC[C@H](NC(=O)c2nc(-n3ccnc3)nc3cc[nH]c23)CC1 [Example 128b, 2-(1H-imidazol-1-yl)-N-((1s,4s)-4-methoxy-4-methylcyclohexyl)-5H-pyrrolo[3,2-d]pyrimidine-4-carboxamide] | 10 to 100
CN(C)CCOc1ccc(NC(=O)c2nc(-n3ccnc3)nc3cc[nH]c23)nc1 [Example 129] | 10 to 100
N#Cc1ccc(NC(=O)c2nc(-n3ccnc3)nc3cc[nH]c23)cc1 [Example 130] | < 10
COCCOc1ccc(NC(=O)c2nc(-n3ccnc3)nc3cc[nH]c23)cc1F [Example 131] | < 10
COCn1cc(NC(=O)c2nc(-n3ccnc3)nc3cc[nH]c23)cn1 [Example 132] | < 10
CN(C)CCOCCO[C@H]1CC[C@H](NC(=O)c2nc(-n3ccnc3)nc3cc[nH]c23)CC1 [Example 133] | 10 to 100
O=C(Nc1ccc(Cl)cn1)c1nc(-n2ccnc2)nc2cc[nH]c12 [Example 134] | < 10
CC1(NC(=O)c2nc(-n3ccnc3)nc3cc[nH]c23)CCOCC1 [Example 135] | 10 to 100
CO[C@H]1CC[C@H](NC(=O)c2nc(-n3ccnc3)nc3ccsc23)CC1 [Example 136] | < 10
O=C(Nc1ccc(Cl)nc1)c1nc(-n2ccnc2)nc2cc[nH]c12 [Example 137] | < 10
O=C(Nc1ccncc1)c1nc(-n2ccnc2)nc2cc[nH]c12 [Example 138] | < 10
CC(C)(O)[C@H]1CC[C@H](NC(=O)c2nc(-n3ccnc3)nc3cc[nH]c23)CC1 [Example 139] | 10 to 100
O=C(Nc1ccnc(Cl)c1)c1nc(-n2ccnc2)nc2cc[nH]c12 [Example 140] | < 10
O=C(Nc1cncc(Cl)c1)c1nc(-n2ccnc2)nc2cc[nH]c12 [Example 141] | < 10
O=C(Nc1cc(Cl)ccn1)c1nc(-n2ccnc2)nc2cc[nH]c12 [Example 142] | < 10
O=C(NC1CCN(C(=O)CN2CCOCC2)CC1)c1nc(-n2ccnc2)nc2cc[nH]c12 [Example 143] | 10 to 100
O=C(Nc1cccc(Cl)n1)c1nc(-n2ccnc2)nc2cc[nH]c12 [Example 144] | < 10
O=C(Nc1ccc(OCCN2CCOCC2)nc1)c1nc(-n2ccnc2)nc2cc[nH]c12 [Example 145] | < 10
CN(C)C(=O)CO[C@H]1CC[C@H](NC(=O)c2nc(-n3ccnc3)nc3cc[nH]c23)CC1 [Example 146] | 10 to 100
O=C(N[C@H]1CC[C@H](C(F)(F)F)CC1)c1nc(-n2ccnc2)nc2nc[nH]c12 [Example 147] | 10 to 100
